These antisense oligonucleotides have a phosphorothioate backbone; sugars and methylation of C are not fully specified. Where only a bound is given, the exact number is not on record here.
Note: test concentration or dose not given here.

One data set deals with GNAI2. As to conditions: ASO.
Turning to CGCAGAAGATGATGGCTG, the remaining target (mRNA or protein) (fraction of control) turned out to be 0.67. Still for that read-out and setting: in the case of CGCCCTCAAAGCAGTGGA it was 0.61; in that of CGGACAGGTCATCAGGGA, 0.59.

CGTTCTTGGTGTCGGTGG: the remaining target (mRNA or protein) (fraction of control) turned out to be 0.39. The same measure, in the same setting: with CTGCTTGACGATGGTGCT the figure was 0.6.

Sequence CTGTGACGCCCTCAAAGC displayed a remaining target (mRNA or protein) (fraction of control) of 0.51. Turning to CTTCCCTGACTCCCCAGC, the remaining target (mRNA or protein) (fraction of control) is 0.3. Sequence CTTGAAGGTGAAGTGTGT yielded a remaining target (mRNA or protein) (fraction of control) of 0.74. On the same count and under the same terms, in the case of GAACATAAGCCAGAAGGG it was 0.94; in that of GCCCCGCTGCCCCTCAGA, 0.65; in that of GCGAACCCCTCCCCTACG, 0.71. On to GCGCTTATTCAGGTCCTC, for which the remaining target (mRNA or protein) (fraction of control) is 0.33.

Turning to GGAAAGAGGAGAAAAGCG, the remaining target (mRNA or protein) (fraction of control) was 0.65. Same read-out and setting: with GGCAGGCTTCAAACAGGG the figure was 0.52; with GGCCTGTGCGAACCCCTC, 0.96; with GGGAAGCAGATGGTCAGG, 0.86. The sequence GGGTCCGTAGCACATCTT came in with a remaining target (mRNA or protein) (fraction of control) of 0.47.

On to GGTTCATCTCCTCGTCCT, for which the remaining target (mRNA or protein) (fraction of control) turned out to be 0.64.

TGAAGTGTGTCTCCACGA: the remaining target (mRNA or protein) (fraction of control) was determined as 0.61. Same read-out and setting: with TGAGCAGGTGGACTGTGG the figure was 0.31; with TTCAGGTCCTCAAACTTA, 0.38.

The target of the next data set is AKT1. As to conditions: ASO.
AAAATACTAAAGTTGAAT came in with a remaining target (mRNA or protein) (fraction of control) of 0.75. Still for that read-out and setting: in the case of AAAGTTGAATGTTGTAAA it was 0.9; in that of AAGTGCTACCGTGGAGAG, 0.43.

The target in another data set is ITGB3. As to conditions: ASO.
Turning to ACCACATACAGGATGGAC, the remaining target (mRNA or protein) (fraction of control) is not below 1. On the same count and under the same terms, with ACGACACAGTCATCCTCA the figure was not below 1; with ACTCACTGGGAACTCGAT, 0.66; with AGAAGTCGTCACACTCGC, 0.72. With AGACAACTCTTCAGGGAG, the remaining target (mRNA or protein) (fraction of control) was 0.62. With AGAGATTGACTACATTTT, the remaining target (mRNA or protein) (fraction of control) worked out at 0.93. The same measure, in the same setting: in the case of AGATGCTGGTACATCCCC it was 0.4. On the same count and under the same terms, with AGCTGCTGAGAGTCAGGC the figure was 0.22; with AGCTTCTCAGTCATCAGC, 0.28; with AGGCATCTGGGCAGGTGG, 0.9. AGTCCTCCTCTGAGCACT had a remaining target (mRNA or protein) (fraction of control) of 0.55. The same measure, in the same setting: in the case of ATGACTGCTTATCATTAA it was not below 1. Same read-out and setting: with CAATAAGGCAAATCTGAA the figure was 0.77; with CACATTGACCACAGAGGC, 0.74. The same measure, in the same setting: with CATTCCTCCAGCCAATCT the figure was 0.6; with CCACGGGCTTTATGGTAA, 0.63; with CTTCCGTCCAATGCTATA, 0.96. The sequence CTTTAGAACGGATTTTCC showed a remaining target (mRNA or protein) (fraction of control) not below 1. The same measure, in the same setting: in the case of GACTCCTGCAATCCTGGC it was 0.53; in that of GCATCCTTGCCAGTGTCC, 0.47; in that of GCATCTCGTCCGCCTCCC, 0.44.

Turning to GCCAGCACAGTCACCCAG, the remaining target (mRNA or protein) (fraction of control) is not below 1.

GCCCATTGCTGGACATGC gave a remaining target (mRNA or protein) (fraction of control) not below 1. Still for that read-out and setting: with GCCCCGAAGCCAATCCGC the figure was not below 1. Regarding GTGATGAGGAGTTTCCAG, the remaining target (mRNA or protein) (fraction of control) was 0.98.

As to GTTCTGGATGCTCCACAG, the remaining target (mRNA or protein) (fraction of control) stood at 0.55. With TCAAACTTCTTACACTCC, the remaining target (mRNA or protein) (fraction of control) is 0.54.

Sequence TCACCCTCAAGCTAAGCA displayed a remaining target (mRNA or protein) (fraction of control) not below 1. On to TCACCGTGTCTCCAATCT, for which the remaining target (mRNA or protein) (fraction of control) turned out to be 0.53. TCAGCTTGGGCCTGGCAG: the remaining target (mRNA or protein) (fraction of control) came to 0.6. Still for that read-out and setting: with TCCTTCGGCCTGAGGGAG the figure was 0.57. The sequence TCTCACTGAGGTAATGAA returned a remaining target (mRNA or protein) (fraction of control) of 0.66.

Consider TGGATGGAGAAATTCTTC, for which the remaining target (mRNA or protein) (fraction of control) stood at 0.64.

TGTCACTACCAACATGAC registered a remaining target (mRNA or protein) (fraction of control) of 0.32. The same measure, in the same setting: with TGTCCCATTTTGCTCTGG the figure was 0.53.

The values above are taken from the OligoGym collection.
